These are literature values, as cited in patent US9457026B2, “Methods for producing aripiprazole suspension and freeze-dried formulation” (OTSUKA PHARMACEUTICAL CO., LTD., priority 2007, dated 2016).

By aqueous solubility is commonly meant the dissolved amount per volume that the medium holds.

The conditions of the series: room temperature.

As for `O=C1CCc2ccc(OCCCCN3CCN(c4cccc(Cl)c4Cl)CC3)cc2N1` [Aripiprazole], the aqueous solubility is less than 1 µg/mL.
